Data as given in the supplement of paper PMC10307832.

How the values were obtained:
Assay in all cases: relative viability (nuclei count vs DMSO), 5 days (fraction); higher = more cells survive
[1] = compound: CN(c1ncccc1CNc1nc(Nc2ccc3c(c2)CC(=O)N3)ncc1C(F)(F)F)S(C)(=O)=O + Nc1nc2[nH]cc(CCc3ccc(C(=O)N[C@@H](CCC(=O)O)C(=O)O)cc3)c2c(=O)[nH]1 [Pemetrexed] (partner 0.2 µM)
Method in brief: (§1)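 Lung cancer cell lines were seeded in 1536-well plates and dosed by pin tool the next day, with either a single drug or a fixed anchor-drug dose combined with five library-drug doses (not always all listed) spaced in √10 steps. Five days later, one step fixed the cells and stained their nuclei (final 0.05% Triton X-100, 1% formaldehyde, 1 ug/ml Hoechst), and nuclei were counted on 4× images. Relative viability is the nuclei count in treated wells divided by the count in vehicle wells, and each value is the median of duplicate plates.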

[2] = compound: CN(c1ncccc1CNc1nc(Nc2ccc3c(c2)CC(=O)N3)ncc1C(F)(F)F)S(C)(=O)=O + CC(=O)Nc1cccc(-n2c(=O)n(C3CC3)c(=O)c3c(Nc4ccc(I)cc4F)n(C)c(=O)c(C)c32)c1 [Trametinib] (partner 0.02 µM)
Method in brief: as §1

[3] = compound: CN(c1ncccc1CNc1nc(Nc2ccc3c(c2)CC(=O)N3)ncc1C(F)(F)F)S(C)(=O)=O + N=C(N)NC(=N)NCCc1ccccc1 [Phenformin] (partner 250 µM)
Method in brief: as §1

[4] = compound: CN(c1ncccc1CNc1nc(Nc2ccc3c(c2)CC(=O)N3)ncc1C(F)(F)F)S(C)(=O)=O + CC1(C)CCC(c2ccc(Cl)cc2)=C(CN2CCN(c3ccc(C(=O)NS(=O)(=O)c4ccc(N[C@H](CCN5CCOCC5)CSc5ccccc5)c(S(=O)(=O)C(F)(F)F)c4)cc3)CC2)C1 [Navitoclax] (partner 0.5 µM)
Method in brief: as §1

Cell Line	relative viability ([1]; first compound 0.01 µM)	relative viability ([1]; first compound 0.03162 µM)	relative viability ([1]; first compound 0.1 µM)	relative viability ([1]; first compound 0.3162 µM)	relative viability ([1]; first compound 1 µM)	relative viability ([2]; first compound 0.01 µM)	relative viability ([2]; first compound 0.03162 µM)	relative viability ([2]; first compound 0.1 µM)	relative viability ([2]; first compound 0.3162 µM)	relative viability ([2]; first compound 1 µM)	relative viability ([3]; first compound 0.01 µM)	relative viability ([3]; first compound 0.03162 µM)	relative viability ([3]; first compound 0.1 µM)	relative viability ([3]; first compound 0.3162 µM)	relative viability ([3]; first compound 1 µM)	relative viability ([4]; first compound 0.01 µM)	relative viability ([4]; first compound 0.03162 µM)	relative viability ([4]; first compound 0.1 µM)	relative viability ([4]; first compound 0.3162 µM)	relative viability ([4]; first compound 1 µM)
NCI-H441	0.222	0.262	0.244	0.292	0.262	0.457	0.461	0.402	0.336	0.403	0.926	0.859	0.805	0.864	0.787	0.476	0.687	0.479	0.706	0.374
NCI-H1793	1.05	0.912	0.934	0.919	0.931	0.473	0.4	0.419	0.519	0.567	0.398	0.384	0.403	0.247	0.197	0.407	0.562	0.498	0.377	0.303
NCI-H23	0.691	0.618	0.779	0.62	0.605	0.392	0.319	0.388	0.466	0.404	0.856	0.835	0.864	0.787	0.734	0.867	1.04	1.08	0.969	0.837
HARA	0.255	0.248	0.199	0.258	0.223	0.816	0.63	0.439	0.63	0.723	0.449	0.5	0.532	0.432	0.356	1.18	1.19	1.14	0.91	0.968
NCI-H1792	0.903	0.995	0.922	0.752	0.867	0.407	0.632	0.433	0.594	0.42	0.258	0.297		0.281	0.489	0.629	0.536	0.578	0.642	0.581
NCI-H1703																0.951	1.12	1.03	1.11	1.02
NCI-H1648	0.66	0.707	0.604	0.694	0.422	0.417	0.435	0.462	0.392	0.301										
CAL-12T	1.24	1.12	1.25	1.36	0.982	0.363	0.304	0.32	0.358	0.357	0.628	0.523	0.536	0.512	0.444	1.25	1.1	1.27	1.27	0.883
NCI-H727						0.386	0.364	0.404	0.424	0.333	0.626	0.655	0.389	0.616	0.444	0.429	0.438	0.435	0.378	0.322
NCI-H2085	0.917	0.774	0.885	0.953	0.947	0.564	0.461	0.551	0.619	0.471	0.743	0.781	0.644	0.775	0.627	1.09	1.17	1.13	1.19	0.934
NCI-H1395	1	0.882	0.865	0.98	0.909	0.979	1.07	1.06	1.14	1.02	0.455	0.463	0.459	0.454	0.417	1.19	1.25	1.04	1.06	1.31
SW 900	0.49	0.459	0.477	0.484	0.51	0.846	0.726	0.761	0.757	0.739	0.745	0.735	0.602	0.515	0.581					
NCI-H460	0.0683	0.0581	0.0611	0.0605	0.0728	0.108	0.139	0.2	0.185	0.129	0.599	0.75	0.499	0.484	0.495	1.18	1.46	1.13	1.19	1.11
A549											0.189	0.205	0.173	0.133	0.152	1.19	1.07	1.26	1.13	1.1
IA-LM																0.712	0.726	0.786	0.788	0.654
EKVX	0.436	0.413	0.347	0.401	0.382	0.355	0.374	0.244	0.319	0.262	0.251	0.236	0.24	0.231	0.24	0.974	1.02	0.944	0.852	0.81
ChaGo-K-1	0.252	0.254	0.264	0.258	0.246	0.959	0.923	0.999	0.912	0.849	0.489	0.444	0.461	0.489	0.404	1.04	0.819	1.11		1.08
NCI-H1755	0.478	0.451	0.426	0.398	0.487	0.766	0.833	0.786	0.758	0.733	0.666	0.615	0.589	0.585	0.574	1.01	1.03	0.972	0.94	0.875
NCI-H2228	0.368	0.343	0.366	0.313	0.355	0.553	0.81	0.473	0.384	0.483	0.321	0.471	0.306	0.331	0.292	0.732	1.18	0.783	0.755	0.741

Cell Line	relative viability ([1]; first compound 0.01 µM)	relative viability ([1]; first compound 0.03162 µM)	relative viability ([1]; first compound 0.1 µM)	relative viability ([1]; first compound 0.3162 µM)	relative viability ([1]; first compound 1 µM)	relative viability ([2]; first compound 0.01 µM)	relative viability ([2]; first compound 0.03162 µM)	relative viability ([2]; first compound 0.1 µM)	relative viability ([2]; first compound 0.3162 µM)	relative viability ([2]; first compound 1 µM)	relative viability ([3]; first compound 0.01 µM)	relative viability ([3]; first compound 0.03162 µM)	relative viability ([3]; first compound 0.1 µM)	relative viability ([3]; first compound 0.3162 µM)	relative viability ([3]; first compound 1 µM)	relative viability ([4]; first compound 0.01 µM)	relative viability ([4]; first compound 0.03162 µM)	relative viability ([4]; first compound 0.1 µM)	relative viability ([4]; first compound 0.3162 µM)	relative viability ([4]; first compound 1 µM)
NCI-H2087	0.695	0.751	0.685	0.728	0.584	0.137	0.233	0.199	0.196	0.224	0.522	0.518	0.424	0.475	0.454	1.06	1.12	1.05	1.04	0.937
LU99A	0.25	0.156	0.184	0.203	0.178	0.559	0.663	0.564	0.65	0.574	0.874	0.706	0.952	0.924	1.15	0.737	0.955	0.824	0.91	0.788
NCI-H1355	1.02	0.981	0.993	1.02	0.973	0.361	0.41	0.439	0.384	0.357	0.45	0.442	0.449	0.406	0.432	0.942	1.02	0.968	0.846	0.776
NCI-H520	0.609	0.924	0.632	0.768	0.705	0.714	0.666	0.646	0.7	0.705	0.601	0.777	0.57	0.678	0.552	1.05	1.12	1.2	1.19	1.17
NCI-H661	0.869	0.941	0.885	0.832	0.833	0.549	0.729	0.577	0.615	0.608	0.285	0.286	0.289	0.277	0.294					
NCI-H650	0.884	0.935	0.826	1.04	0.621	1.02	1.01	0.994	1.02	0.88	0.492	0.464	0.396	0.393	0.441					
NCI-H647	0.192	0.163	0.167	0.178	0.17	0.582	0.594	0.459	0.463	0.414	0.483	0.689	0.616	0.579	0.401	1.16	1.21	1.16	1.04	1.07
201T	0.336	0.333	0.383	0.34	0.316	0.709	0.712	0.664	0.669	0.67	0.43	0.394	0.445	0.443	0.437	1.21	1.26	1.18	1.16	1.15
NCI-H838	0.247	0.258	0.247	0.219	0.238	0.534	0.695	0.501	0.421	0.329	0.604	0.671	0.575	0.504	0.396	1.17	1.35	1.27	1.02	0.851
SW 1573	0.869	0.928	0.826	0.934	0.837	0.568	0.567	0.531	0.636	0.449	0.383	0.405	0.381	0.412	0.314	1.22	0.973	0.988	0.896	1.07
PC-14	0.162	0.135	0.134	0.128	0.134	0.82	0.909	0.891	0.726	0.619	0.726	0.59	0.563	0.565	0.715	1.02	1.16	1.03	1.01	1.04
LK-2	0.309	0.28	0.252	0.251	0.29	0.897	0.973	0.679	0.73	0.601	0.376	0.386	0.63	0.517	0.532	1.04	1.03	1.02	0.809	0.773
COR-L23	0.202	0.18	0.211	0.205	0.203	0.563	0.66	0.57	0.605	0.516	0.464	0.54	0.416	0.424	0.332	0.929	1.09	0.933	1.01	0.826
LCLC-103H	0.476	0.474	0.488	0.541	0.463	0.674	0.687	0.675	0.704	0.673	0.337	0.298	0.277	0.348	0.318					
ABC-1											0.214	0.238	0.26	0.279	0.229					
NCI-H358	0.148	0.164	0.169	0.177	0.156	0.12	0.125	0.108	0.126	0.0973	0.336	0.338	0.317	0.317	0.202					
NCI-H1563	0.815	0.772	0.84	0.772	0.773						0.677	0.686	0.683	0.634	0.649					
EBC-1																0.461	0.318	0.351	0.385	0.302
Calu-6																0.848	0.863	0.78	0.777	0.772
